Measurements reported in ChEMBL document CHEMBL5096161, “Medulloblastoma drugs in development: Current leads, trials and drawbacks” (Eur J Med Chem, 2021).

Experiments:
[1] = Inhibition of hedgehog signalling in mouse Shh Light II cells assessed as luciferase activity; type: cell-based
[2] = target: Casein kinase I isoform alpha (Homo sapiens, UniProt P48729); test: Binding affinity to CK1alpha (unknown origin) using casein as substrate by fluorescence based analysis
[3] = Inhibition of Wnt/beta-catenin transactivation signalling in Wnt3a stimulated human HEK 293 STF cells harbouring TCF/LEF1 luciferase reporter gene assessed as reduction in luciferase activity by TOPFlash luciferase reporter assay; type: cell-based
[4] = test system: Daoy; test: Antiproliferative activity against human Daoy cells assessed as inhibition of cell proliferation incubated for 72 hrs by MTS assay; type: functional, cell-based
[5] = Antiproliferative activity against human UW228 cells assessed as inhibition of cell proliferation incubated for 72 hrs by MTS assay; type: functional, cell-based; conditions: UW228, 72 h
[6] = test system: Daoy; test: Antiproliferative activity against human Daoy cells assessed as reduction in cell viability by MTT assay; type: functional, cell-based
[7] = Antiproliferative activity against human Medulloblastoma cells expressing wild type SMO assessed as reduction in cell viability; type: functional, cell-based
[8] = Antiproliferative activity against human Med1 cells assessed as reduction in cell viability; type: functional, cell-based
[9] = Inhibition of hedgehog signalling in mouse Shh Light II cells co-transfected with Gli firefly and Renilla-luciferase assessed as reduction in SAG-induced Gli luciferase activity incubated for 24 hrs by dual luciferase reporter assay; type: cell-based
[10] = target: T1, Protein smoothened (Homo sapiens, UniProt Q99835); test: Binding affinity to human SMO (181 to 787 residues) expressed in human HEK293 cells assessed as radioactivity incubated for 2 hrs in presence of H3-labeled smo antagonist by ligand-displacement assay; type: cell-based
T1 sequence (Q99835 whole entry, the tested form may be a part): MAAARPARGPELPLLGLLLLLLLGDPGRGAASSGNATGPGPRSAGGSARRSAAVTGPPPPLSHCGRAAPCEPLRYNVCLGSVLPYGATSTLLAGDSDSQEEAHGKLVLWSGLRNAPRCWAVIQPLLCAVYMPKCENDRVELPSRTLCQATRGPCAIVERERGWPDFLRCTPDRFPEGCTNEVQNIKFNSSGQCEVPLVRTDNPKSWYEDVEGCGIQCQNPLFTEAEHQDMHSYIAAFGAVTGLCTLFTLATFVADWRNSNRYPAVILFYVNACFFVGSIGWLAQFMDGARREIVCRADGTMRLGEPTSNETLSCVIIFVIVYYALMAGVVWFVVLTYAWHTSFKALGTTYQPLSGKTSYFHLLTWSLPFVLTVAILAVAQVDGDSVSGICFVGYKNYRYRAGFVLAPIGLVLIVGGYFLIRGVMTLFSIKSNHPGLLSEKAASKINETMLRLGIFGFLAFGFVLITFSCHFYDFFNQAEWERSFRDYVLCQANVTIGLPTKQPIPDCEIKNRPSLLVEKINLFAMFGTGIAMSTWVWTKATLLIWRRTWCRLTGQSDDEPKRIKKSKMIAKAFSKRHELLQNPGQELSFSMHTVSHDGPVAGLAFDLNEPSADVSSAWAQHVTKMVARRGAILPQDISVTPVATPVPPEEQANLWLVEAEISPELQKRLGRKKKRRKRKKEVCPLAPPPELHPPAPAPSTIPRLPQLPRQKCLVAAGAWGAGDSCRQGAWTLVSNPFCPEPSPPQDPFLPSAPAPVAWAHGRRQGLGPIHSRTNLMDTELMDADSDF

[11] = Inhibition of Shh-induced hedgehog signalling pathway in mouse MEF cells expressing Gli-Luc reporter gene assessed as reduction in Gli1 transcription activity incubated for 48 hrs in presence of recombinant mouse shh stimulation by Bright-Glo luciferase Assay
[12] = test system: D283 Med; test: Antiproliferative activity against human D283 Med cells assessed as inhibition of cell proliferation incubated for 48 hrs by MTS assay; type: functional, cell-based
[13] = Inhibition of hedgehog signalling in mouse Shh Light II cells co-transfected with Gli firefly luciferase assessed as inhibition of Gli luciferase expression measured after 30 hrs by luciferase reporter assay; type: cell-based
[14] = Antiproliferative activity against human Medulloblastoma cells expressing MYC and wild type Gfi1 assessed as reduction in cell viability incubated for 48 hrs by Cell TiterGlo luminescent assay; type: functional, cell-based
[15] = target: T1, Protein smoothened; test: Inhibition of endogenous human Smo overexpressed in mouse C3H 10T1/2 cells cotransfected with Gli reporter gene assessed as Gli luciferase activity by dual luciferase assay; type: functional, cell-based
[16] = target: Protein smoothened (Mus musculus, UniProt P56726); test: Inhibition of endogenous mouse Smo overexpressed in mouse C3H 10T1/2 cells cotransfected with Gli reporter gene assessed as Gli luciferase activity by dual luciferase assay; type: functional, cell-based
Sequence of Protein smoothened (Mus musculus, UniProt P56726) (P56726 whole entry): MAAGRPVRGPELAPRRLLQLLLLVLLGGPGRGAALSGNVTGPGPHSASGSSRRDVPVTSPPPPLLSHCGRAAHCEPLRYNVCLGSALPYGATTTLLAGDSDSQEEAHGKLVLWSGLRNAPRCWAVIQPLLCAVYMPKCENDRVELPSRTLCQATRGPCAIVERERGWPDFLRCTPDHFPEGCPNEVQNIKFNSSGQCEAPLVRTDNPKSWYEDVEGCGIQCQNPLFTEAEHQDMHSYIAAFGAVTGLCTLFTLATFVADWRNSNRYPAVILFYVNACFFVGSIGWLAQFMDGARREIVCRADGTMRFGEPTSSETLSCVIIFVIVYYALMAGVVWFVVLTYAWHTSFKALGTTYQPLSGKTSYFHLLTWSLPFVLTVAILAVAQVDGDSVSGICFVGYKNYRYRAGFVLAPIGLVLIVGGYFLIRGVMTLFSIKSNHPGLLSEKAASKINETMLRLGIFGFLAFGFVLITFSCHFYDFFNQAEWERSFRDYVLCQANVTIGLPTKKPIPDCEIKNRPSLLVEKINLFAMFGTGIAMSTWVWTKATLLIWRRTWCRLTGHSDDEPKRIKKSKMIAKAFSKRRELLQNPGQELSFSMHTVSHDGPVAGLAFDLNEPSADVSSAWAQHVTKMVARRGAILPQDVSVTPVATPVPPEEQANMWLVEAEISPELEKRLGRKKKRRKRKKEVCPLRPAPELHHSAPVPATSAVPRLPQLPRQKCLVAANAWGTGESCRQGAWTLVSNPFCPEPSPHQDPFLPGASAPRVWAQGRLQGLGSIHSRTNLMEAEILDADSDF

[17] = Half life in CD-1 mouse plasma at 10 mg/kg, po administered as single dose; type: ADME, organism-based
[18] = Prodrug conversion in ICR mouse brain assessed as Cmax of PF403 metabolite at 10 mg/kg, po and measured after 5 mins by LC-MS/MS analysis; type: ADME, organism-based; set-up: dose 10 mg/kg, time 5 min, route po; conditions: in vivo
[19] = Ratio of AUC in brain to plasma of C57BL/6 mouse at 2 mg/kg, po and measured after 24 hrs by LC/MS-MS analysis; type: ADME, organism-based; conditions: read-out: Ratio AUC
[20] = Inhibition of hedgehog signalling in mouse Shh Light II cells transfected with Gli luciferase reporter gene assessed as Gli luciferase activity assessed as luciferase activity by luciferase assay; type: cell-based
[21] = Antiproliferative activity against neonatally irradiated Ptch1-/+ mouse medulloblastoma cells assessed as inhibition of cell proliferation; type: functional, cell-based; conditions: light or radiation study
[22] = Inhibition of Hedgehog signaling in mouse NIH3T3 cells expressing GRE-Luc reporter gene assessed luciferase activity incubated for 48 hrs in presence of SAG by Bright-Glo luciferase assay; type: cell-based
[23] = Inhibition of hedge hog pathway in mouse Sufu-KO-LIGHT cells expressing firefly luciferase reporter gene assessed as inhibition of Gli transcription incubated for 16 hrs by Bright-Glo luciferase assay; type: cell-based

Sequence of Casein kinase I isoform alpha (P48729 whole entry, canonical isoform): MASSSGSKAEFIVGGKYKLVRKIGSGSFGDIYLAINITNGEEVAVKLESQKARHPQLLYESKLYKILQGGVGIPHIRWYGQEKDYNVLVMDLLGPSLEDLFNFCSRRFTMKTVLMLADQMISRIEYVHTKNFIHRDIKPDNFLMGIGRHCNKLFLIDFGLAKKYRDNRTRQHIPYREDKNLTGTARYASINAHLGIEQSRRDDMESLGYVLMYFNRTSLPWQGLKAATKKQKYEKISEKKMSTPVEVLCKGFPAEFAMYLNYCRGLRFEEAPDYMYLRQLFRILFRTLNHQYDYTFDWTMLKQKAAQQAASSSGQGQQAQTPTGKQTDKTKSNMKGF

Which IC50 [1] does the source give for `Cc1cc(/C=C/c2ccc3cc(N(C)C)ccc3[n+]2C)c(C)n1-c1ccccc1` here?
Its IC50 is 10 nM.

And the Kd [2]?
The Kd was 1 nM.

And the IC50 [3]?
The IC50 was 10 nM.

Which IC50 [4] does the source give for `COc1ccc(Cn2c3ncnc4c(ncn4Cc4ccc(OC)cc4)c-3nc2=O)cc1` here?
The IC50 was 2500 nM.

What about the IC50 [5] of the same compound?
The IC50 was 3500 nM.

For `COc1cc2c3c(c4ccc(O)cc4c2cc1OC)C[C@@H]1CCCN1C3`, which IC50 [6] is on record?
The IC50 was 0.013 nM.

Which results are given for `Cc1sc2c(c1C)C(c1ccc(Cl)cc1)=N[C@@H](CC(=O)OC(C)(C)C)c1nnc(C)n1-2`?
IC50 [7]: 50 nM; IC50 [8]: 50 nM

Which IC50 [9] does the source give for `COc1cc2c(cc1-c1c(C)noc1C)ncc1[nH]c(=O)n([C@H](C)c3ccccn3)c12` here?
Its IC50 is 30 nM.

For `Cc1cnc(-c2cc(N3CCN(C(=O)CCS(C)(=O)=O)CC3)ncc2Cl)c(C)c1`, which IC50 [10] is on record?
The IC50 was 5.8 nM.

And the IC50 [11]?
The IC50 was 2.7 nM.

For `Fc1ccc(CNc2ncnc3c2cnn3CC(Cl)c2ccc(Cl)cc2)cc1` (stereo not given), which IC50 [12] is on record?
Its IC50 is 4890 nM.

Which IC50 [13] does the source give for `C[C@H](CO)N1C[C@H](C)[C@H](CN(C)S(=O)(=O)c2ccc(Cl)cc2Cl)Oc2c(NC(=O)C3CC3)cccc2C1=O` here?
Its IC50 is 60 nM.

Which IC50 [14] does the source give for `c1ccc([C@@H]2C[C@H]2NC2CCNCC2)cc1` here?
The IC50 was 0.05 nM.

What does the source list for `C[C@@H]1CN(c2ccc(C(=O)Nc3ccc(Cl)c(NC(=O)c4cccc(Cl)c4)c3)cn2)C[C@H](C)N1`?
IC50 [15]: 8 nM; IC50 [16]: 27 nM; half-life [17]: 22 h

With `COc1cc2c3c(c4ccc(OC(=O)C(C)(C)C)cc4c2cc1OC)C[C@@H]1CCCN1C3` as the compound, how does the Cmax [18] read?
The Cmax was 37.76 ng/mL.

Which Kp at 24 h [19] does the source give for `Cn1c(-c2ccccc2C(F)(F)F)nnc1C12CCC(c3noc(C4CC(F)(F)C4)n3)(CC1)CC2` here?
Its Kp at 24 h is 0.6.

What about the IC50 [20] of the same compound?
Its IC50 is 1500 nM.

And the IC50 [21]?
The IC50 was 300 nM.

With `Cc1cnc(-c2cc(N3CCc4nc(N5CCC(O)CC5)ncc4C3)ccc2Cl)c(C)c1` as the compound, how does the IC50 [22] read?
Its IC50 is 7.5 nM.

For `CCOc1ccc(-[n+]2cc(-c3ccc(Br)cc3)n3c2CCc2ccccc2-3)cc1`, which IC50 [23] is on record?
The IC50 was 1420 nM.

Which IC50 [4] does the source give for `C=CCn1c(=O)c2cnc(Nc3ccc(N4CCN(C)CC4)cc3)nc2n1-c1cccc(C(C)(C)O)n1` [ADAVOSERTIB] here?
Its IC50 is 150 nM.

And the IC50 [5]?
Its IC50 is 232 nM.
